The test system of assay [1] is INS+ cells. Kind of assay: High-content survival / inhibitory curve, hESC-derived INS+ cells. The settings on record: H1 hESC-derived, β-cell differentiation protocol 1, 4 days treatment, n = 8; read-out: IC50 for INS+ cells. Format: cell-based, human. How it is done:
(§1) The screening library ToxCast Phase I was obtained from the US Environmental Protection Agency, which contains approximately 2000 compounds dissolved at 20 mM in DMSO. The H1 hESC-derived population was dissociated with Accutase and re-plated onto laminin V-coated 384-well plates at 5000 cells per well. After 16 h incubation, cells were treated with individual compounds from the ToxCast library with four concentrations, including 20 nM, 200 nM, 2 μM, and 20 μM, for each compound. After 4 days, the cells were fixed with 10% formalin and stained with an INS antibody and DAPI, followed by automatic imaging and analysis by ImageXpress^MICRO Automated High-Content Analysis System (Molecular Devices) to count the numbers of INS^+ and INS^− cells. The survival rate was calculated by dividing the numbers of INS^+ cells in compound treated conditions by the average number of INS^+ cells in DMSO-treated conditions. The compounds that induced more than 60% reduction of the survival rate of INS^+ cells and less than 20% of the INS^− cells were chosen as primary hits. Hit compounds were then selected and validated in three additional independent experiments using the same protocol as the primary screening.
(§2) hESCs-derived INS^+ cells, MSCs[43], neurons, and hepatocytes[44] were derived based on the reported protocols and re-plated on 96-well plates with Accutase digestion. Cardiomyocytes (CMs) were differentiated from H9-MYH6: mCherry reporter line, based on the reported protocol. After overnight incubation, cells were treated with DMSO or different doses of hit compounds for 4 days. After fixation, the cells were stained with markers for each cell type. DAPI was used to stain cell nuclei. Plates were analyzed by ImageXpress^MICRO Automated High-Content Analysis System.

Assay [2] deals with INS- cells. Put plainly: High-content survival / inhibitory curve, hESC-derived INS- cells. Format: cell-based, human. The settings on record: H1 hESC-derived, β-cell differentiation protocol 1, 4 days treatment, n = 8. The procedure: as §1, with “Hit compounds were then selected and validated in three additional independent experiments using the same protocol as the primary screening.” left out
hESCs-derived INS^+ cells, MSCs[43], neurons, and hepatocytes[44] were derived based on the reported protocols and re-plated on 96-well plates with Accutase digestion. […] Plates were analyzed by ImageXpress^MICRO Automated High-Content Analysis System.

Assay [3] deals with MIN6 cells. Put plainly: MIN6 cell survival inhibitory curve. Format: cell-based, mouse. The settings on record: cell survival rate; read-out: IC50, MIN6 cell death.
Assay [4] relates to MYH6:mCherry+ cardiomyocytes. Kind of assay: Inhibition curve on hESC-derived cardiomyocytes. Format: cell-based, human. The conditions noted are these: cell survival rate, 4 days, n=3. How it is done: as §2
(§3) Supplementary Figure 4. Assessment of the toxic effect of propargite on different type […]
(§4) (a) Flow cytometry char acterization of CD29+ and CD73+ mesenchymal stem cells (MSCs) derived from H1 hESCs. (b-c) microscope image (b) and flow cytometry (c) characterization of cardiomyocytes expressing MYH6+ derived from a MYH6:mCherry reporter hESC line. (d-e) Immunocytochemistry characterization of MAP2+/TUJ1+ and HuC/D+/MAP2+ neurons (d) and A1AT+/ASGPR1+ hepatocytes (e) derived from H1 hESCs. All the cells were counterstained by DAPI (blue). Scale bars, 100 µm. (f) Inhibition curve of propargite on pancreatic β-like cells, MSCs, cardiomyocytes, neurons, and hepatocytes derived from hESCs, and BJ-fibroblasts (n=3). Values presented as mean±S.D. […]

For assay [5], the system named is A1AT+ hepatocytes. Kind of assay: Inhibition curve on hESC-derived hepatocytes. Format: cell-based, human. The conditions noted are these: cell survival rate, 4 days, n=3. How it is done:
as §2, §3, §4

Assay [6] concerns MIN6 cells. Put plainly: Apoptosis analysis (Annexin V flow cytometry, active caspase-3 staining). Format: cell-based, mouse. The conditions noted are these: immunocytochemistry, 1.6 µM. How it is done: Cells were fixed with 10% (v/v) formalin for 20 min at room temperature (RT) and blocked in a solution of Mg^2+- and Ca^2+-free PBS containing 5% horse serum and 0.3% Triton-X for 1 h at room temperature and followed by incubation with primary antibody at 4 °C overnight. […]
Cells were dissociated by Accutase (Stem Cells) and washed with cold DPBS and then detected with FITC Annexin V Apoptosis Detection Kit I (BD Bioscience, 556547), and analyzed within 1 h by FACSVantage SE (Becton Dickinson). […]
cells. (b, c) Flow cytometry analysis (b) and quantification (c) of the percentage of […]
Etoposide was used as a positive control. Values presented as mean±S.D. (d, e) Immunocytochemistry analysis (d) and quantification (e) of the percentage of Active Caspase-3+ cells in 1.6 µM propargite treated MIN6 cells (n=3). […]

The test system of assay [7] is EndoC-βH1 cells. Kind of assay: EndoC-βH1 cells carrying sgGSTT1, PI staining. Format: cell-based, human. The conditions noted are these: 1.6 μM propargite. How it is done:
Two sgRNAs targeting two different loci on GSTT1 gene: sgGSTT1-1 and sgGSTT1-2 and a sgRNA targeting GFP (sgGFP)[46] which has no specific targets on the human genome and was used as a control, were cloned into lentiCRISPRv2 vectors (Addgene plasmid # 52961)[47]. EndoC-βH1 cells were infected with the lentivirus carrying Cas9 and sgRNAs. After 2 days of selection with 1 μg/ml puromycin, western blots were used to validate the knockout efficiency.

The term IC50 denotes the concentration at which inhibition is half-maximal.

Take “2-(4-tert-butylphenoxy)-cyclohexyl prop-2-yne-1-sulfonate [propargite]”: the IC50 in assay [1] amounted to 1.09 µM; in assay [2], 9.83 µM; in assay [3], 1 µM; in assay [4], 29 µM; in assay [5] it was 13 µM. Besides, the caspase-3 activation entry in assay [6] is “nor caspase-3 activation”. Further, in assay [7], the “INS+ cell death in EndoC-βH1 cells expressing sgGSTT1” value was “significant increase”.

Source of the values: PMC6240096, “A hPSC-based platform to discover gene-environment interactions that impact human β-cell and dopamine neuron survival” (Nature Communications, 2018).
